Reference: ChEMBL document CHEMBL1201862, “PubChem BioAssay data set” (2004)
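Test compounds were applied to cells in 96-well plates for 48 hours at 5 doses. At the GI50, growth is halved.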 Active and inactive are the calls of the source. Cut-off read from the data, not from the text of the source: active = GI50 up to about 1.1 µM and inactive = higher.

Columns and labels:
Assay in all cases: DTP human tumour cell line panel, 48 h
[1] = tested on: SF-295
[2] = tested on: T47D
[3] = tested on: NCI-H23
[4] = tested on: SNB-75
[5] = tested on: K562
[6] = tested on: SK-OV-3
[7] = tested on: NCI-H460
[8] = tested on: HOP-92
[9] = tested on: SK-MEL-28
[10] = tested on: Hs-578T
[11] = tested on: LOX IMVI
[12] = tested on: DU-145
[13] = tested on: RXF 393
[14] = tested on: UO-31
[15] = tested on: PC-3
[16] = tested on: A549
[17] = tested on: CAKI-1
[18] = tested on: RPMI-8226
[19] = tested on: M14
[20] = tested on: HCC 2998

## Oc1cc(Br)cc2cc(Br)cnc12
[1]
  GI50: 2.64 µM (inactive)
[2]
  GI50: 2.8 µM (inactive)
[3]
  GI50: 4.95 µM (inactive)
[4]
  GI50: 3.47 µM (inactive)
[5]
  GI50: 1.21 µM (inactive)
[6]
  GI50: 39.2 µM (inactive)
[7]
  GI50: 1.3 µM (inactive)
[8]
  GI50: 13.7 µM (inactive)
[9]
  GI50: 2.02 µM (inactive)
[10]
  GI50: 3.24 µM (inactive)
[11]
  GI50: 0.661 µM (active)
[12]
  GI50: 3.68 µM (inactive)
[13]
  GI50: 1.6 µM (inactive)
[14]
  GI50: 2.99 µM (inactive)
[15]
  GI50: 3.71 µM (inactive)
[16]
  GI50: 3.29 µM (inactive)
[17]
  GI50: 8.55 µM (inactive)
[18]
  GI50: 2.63 µM (inactive)
[19]
  GI50: 2.4 µM (inactive)
[20]
  GI50: 17.1 µM (inactive)

## O=C(N/N=C\c1ccc(Cl)cc1)Nc1ccc2ccccc2c1
[1]
  GI50: > 10 µM (inactive)
[2]
  GI50: > 100 µM (inactive)
[3]
  GI50: 76.4 µM (inactive)
[4]
  GI50: 30.5 µM (inactive)
[5]
  GI50: > 100 µM (inactive)
[6]
  GI50: 94.6 µM (inactive)
[7]
  GI50: 28.5 µM (inactive)
[8]
  GI50: 29.6 µM (inactive)
[9]
  GI50: 54.7 µM (inactive)
[10]
  GI50: 26.9 µM (inactive)
[11]
  GI50: > 100 µM (inactive)
[12]
  GI50: > 100 µM (inactive)
[13]
  GI50: 27.6 µM (inactive)
[14]
  GI50: 53.7 µM (inactive)
[15]
  GI50: 30.3 µM (inactive)
[16]
  GI50: 52 µM (inactive)
[17]
  GI50: 41.7 µM (inactive)
[18]
  GI50: 70.8 µM (inactive)
[19]
  GI50: 59.2 µM (inactive)
[20]
  GI50: 67.5 µM (inactive)

## N=C(N)NCCCC(NC(=O)OCCCCn1ccc(N)nc1=O)C(=O)O (stereo not given)
[1]
  GI50: > 100 µM (inactive)
[2]
  GI50: > 100 µM (inactive)
[3]
  GI50: > 100 µM (inactive)
[4]
  GI50: > 100 µM (inactive)
[5]
  GI50: > 100 µM (inactive)
[6]
  GI50: > 100 µM (inactive)
[7]
  GI50: > 100 µM (inactive)
[8]
  GI50: > 100 µM (inactive)
[9]
  GI50: > 100 µM (inactive)
[10]
  GI50: > 100 µM (inactive)
[11]
  GI50: > 100 µM (inactive)
[12]
  GI50: > 100 µM (inactive)
[13]
  GI50: > 100 µM (inactive)
[14]
  GI50: > 100 µM (inactive)
[15]
  GI50: > 100 µM (inactive)
[16]
  GI50: > 100 µM (inactive)
[17]
  GI50: > 100 µM (inactive)
[18]
  GI50: > 100 µM (inactive)
[19]
  GI50: > 100 µM (inactive)
[20]
  GI50: > 100 µM (inactive)

## C=C(Cl)C(Cl)(CBr)CCC(Cl)C(C)(C)Cl (stereo not given)
[1]
  GI50: 3.17 µM (inactive)
[2]
  GI50: 0.256 µM (active)
[3]
  GI50: 8.89 µM (inactive)
[4]
  GI50: 0.23 µM (active)
[5]
  GI50: 2.22 µM (inactive)
[6]
  GI50: 25.8 µM (inactive)
[7]
  GI50: 1.19 µM (inactive)
[8]
  GI50: 1.16 µM (inactive)
[9]
  GI50: 1.69 µM (inactive)
[10]
  GI50: 0.0237 µM (active)
[11]
  GI50: 12.9 µM (inactive)
[12]
  GI50: 1.35 µM (inactive)
[13]
  GI50: 1.35 µM (inactive)
[14]
  GI50: 2.3 µM (inactive)
[15]
  GI50: 1.53 µM (inactive)
[16]
  GI50: 2.96 µM (inactive)
[17]
  GI50: 1.08 µM (active)
[18]
  GI50: 0.112 µM (active)
[19]
  GI50: 17.9 µM (inactive)
[20]
  GI50: 4.52 µM (inactive)

## Cc1cccc2nc3cccc(C(=O)NCCC[N+](C)(CCCNC(=O)c4cccc5nc6cccc(C)c6nc45)Cc4ccc([N+](=O)[O-])n4C)c3nc12
[1]
  GI50: 5.66 µM (inactive)
[2]
  GI50: 14.9 µM (inactive)
[3]
  GI50: > 67.1 µM (inactive)
[4]
  GI50: > 100 µM (inactive)
[5]
  GI50: 0.407 µM (active)
[6]
  GI50: 41.5 µM (inactive)
[7]
  GI50: 0.405 µM (active)
[8]
  GI50: > 100 µM (inactive)
[9]
  GI50: 3.94 µM (inactive)
[10]
  GI50: 18.5 µM (inactive)
[11]
  GI50: 0.871 µM (active)
[12]
  GI50: 1.45 µM (inactive)
[13]
  GI50: > 100 µM (inactive)
[14]
  GI50: 1.04 µM (active)
[15]
  GI50: 1.83 µM (inactive)
[16]
  GI50: 0.348 µM (active)
[17]
  GI50: 0.895 µM (active)
[18]
  GI50: 1.33 µM (inactive)
[19]
  GI50: > 31.3 µM (inactive)
[20]
  GI50: 11.6 µM (inactive)

## N#Cc1c(-c2ccc(Cl)cc2)cc(-c2ccc(Nc3ccnc4cc(Cl)ccc34)cc2)[nH]c1=O
[1]
  GI50: 16.6 µM (inactive)
[2]
  GI50: > 100 µM (inactive)
[3]
  GI50: 24.7 µM (inactive)
[4]
  GI50: 14.6 µM (inactive)
[5]
  GI50: > 54.5 µM (inactive)
[6]
  GI50: 34.7 µM (inactive)
[7]
  GI50: > 100 µM (inactive)
[8]
  GI50: 18.1 µM (inactive)
[9]
  GI50: > 100 µM (inactive)
[10]
  GI50: 16.5 µM (inactive)
[11]
  GI50: 31.6 µM (inactive)
[12]
  GI50: 99.3 µM (inactive)
[13]
  GI50: 30.4 µM (inactive)
[14]
  GI50: > 100 µM (inactive)
[15]
  GI50: > 100 µM (inactive)
[16]
  GI50: > 100 µM (inactive)
[17]
  GI50: > 100 µM (inactive)
[18]
  GI50: > 62.5 µM (inactive)
[19]
  GI50: > 100 µM (inactive)
[20]
  GI50: > 100 µM (inactive)

## Nc1ccn(C=C=CCO)c(=O)n1
[1]
  GI50: > 100 µM (inactive)
[2]
  GI50: > 93.8 µM (inactive)
[3]
  GI50: > 100 µM (inactive)
[4]
  GI50: > 93.8 µM (inactive)
[5]
  GI50: > 100 µM (inactive)
[6]
  GI50: > 100 µM (inactive)
[7]
  GI50: > 100 µM (inactive)
[8]
  GI50: > 66.4 µM (inactive)
[9]
  GI50: > 100 µM (inactive)
[10]
  GI50: > 100 µM (inactive)
[11]
  GI50: > 100 µM (inactive)
[12]
  GI50: > 100 µM (inactive)
[13]
  GI50: > 100 µM (inactive)
[14]
  GI50: > 100 µM (inactive)
[15]
  GI50: > 100 µM (inactive)
[16]
  GI50: > 100 µM (inactive)
[17]
  GI50: > 100 µM (inactive)
[18]
  GI50: 589 µM (inactive)
[19]
  GI50: > 100 µM (inactive)
[20]
  GI50: > 78.5 µM (inactive)
